In the supplement of paper PMC10307832:

Legend:
Assay in all cases: relative viability (nuclei count vs DMSO), 5 days (fraction); higher = more cells survive
Afatinib + Bortezomib = compound: CN(C)C/C=C/C(=O)Nc1cc2c(Nc3ccc(F)c(Cl)c3)ncnc2cc1O[C@H]1CCOC1 [Afatinib] + CC(C)C[C@H](NC(=O)[C@H](Cc1ccccc1)NC(=O)c1cnccn1)B(O)O [Bortezomib] (partner 0.002 µM)
How it was run: (§1)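 Lung cancer cell lines, seeded in 1536-well plates, were treated the following day by pin tool with a single drug or with five library-drug doses (not always all listed) in √10 steps on top of a fixed anchor-drug dose. Cells were fixed and nuclei stained in one step after 5 days, and nuclei were counted. Relative viability is the nuclei count for treated wells divided by that for vehicle wells, reported as medians of duplicate plates.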

Afatinib + Alpelisib = compound: CN(C)C/C=C/C(=O)Nc1cc2c(Nc3ccc(F)c(Cl)c3)ncnc2cc1O[C@H]1CCOC1 [Afatinib] + Cc1nc(NC(=O)N2CCC[C@H]2C(N)=O)sc1-c1ccnc(C(C)(C)C(F)(F)F)c1 [Alpelisib] (partner 2 µM)
How it was run: as §1

Afatinib + Pemetrexed = compound: CN(C)C/C=C/C(=O)Nc1cc2c(Nc3ccc(F)c(Cl)c3)ncnc2cc1O[C@H]1CCOC1 [Afatinib] + Nc1nc2[nH]cc(CCc3ccc(C(=O)N[C@@H](CCC(=O)O)C(=O)O)cc3)c2c(=O)[nH]1 [Pemetrexed] (partner 0.2 µM)
How it was run: as §1

Afatinib + Olaparib = compound: CN(C)C/C=C/C(=O)Nc1cc2c(Nc3ccc(F)c(Cl)c3)ncnc2cc1O[C@H]1CCOC1 [Afatinib] + O=C(c1cc(Cc2n[nH]c(=O)c3ccccc23)ccc1F)N1CCN(C(=O)C2CC2)CC1 [Olaparib] (partner 8 µM)
How it was run: as §1

Cell Line	relative viability (Afatinib + Bortezomib; first compound 0.005 µM)	relative viability (Afatinib + Bortezomib; first compound 0.01581 µM)	relative viability (Afatinib + Bortezomib; first compound 0.05 µM)	relative viability (Afatinib + Bortezomib; first compound 0.1581 µM)	relative viability (Afatinib + Bortezomib; first compound 0.5 µM)	relative viability (Afatinib + Alpelisib; first compound 0.005 µM)	relative viability (Afatinib + Alpelisib; first compound 0.01581 µM)	relative viability (Afatinib + Alpelisib; first compound 0.05 µM)	relative viability (Afatinib + Alpelisib; first compound 0.1581 µM)	relative viability (Afatinib + Alpelisib; first compound 0.5 µM)	relative viability (Afatinib + Pemetrexed; first compound 0.005 µM)	relative viability (Afatinib + Pemetrexed; first compound 0.01581 µM)	relative viability (Afatinib + Pemetrexed; first compound 0.05 µM)	relative viability (Afatinib + Pemetrexed; first compound 0.1581 µM)	relative viability (Afatinib + Pemetrexed; first compound 0.5 µM)	relative viability (Afatinib + Olaparib; first compound 0.005 µM)	relative viability (Afatinib + Olaparib; first compound 0.01581 µM)	relative viability (Afatinib + Olaparib; first compound 0.05 µM)	relative viability (Afatinib + Olaparib; first compound 0.1581 µM)	relative viability (Afatinib + Olaparib; first compound 0.5 µM)
NCI-H2126	1.11	1.04	1.01	0.984	0.852	0.726	0.722	0.653	0.504	0.444	0.715	0.66	0.623	0.469	0.45	0.934	0.881	0.85	0.645	0.665
NCI-H2228	1.19	0.812	0.984	–	0.901	0.74	0.78	0.688	–	0.589	0.283	0.306	0.334	0.298	0.322	0.935	0.518	0.704	0.506	0.579
NCI-H2347	1.06	0.919	0.81	0.865	0.728	1.11	0.979	1.1	1.1	0.889	0.401	0.414	0.426	0.45	0.392	0.571	0.699	0.595	0.566	0.578
NCI-H2405	1	0.953	0.975	0.931	1.01	0.703	0.804	0.875	0.708	0.913	1.09	1.14	1.12	1.01	0.953	0.885	0.934	0.864	0.874	0.852
NCI-H3122	1.05	1.02	1.06	0.967	1.04	0.81	0.685	0.716	0.738	0.705	0.206	0.196	0.199	0.187	0.187	0.619	0.628	0.57	0.632	0.68
PC-3 [JPC-3]	0.516	0.351	0.315	0.406	0.303	0.49	0.392	0.377	0.362	0.354	0.514	0.384	0.462	0.414	0.431	0.608	0.453	0.472	0.456	0.476
PC-14	0.303	0.256	0.268	0.222	0.249	0.169	0.15	0.137	0.127	0.163	0.155	0.155	0.164	0.165	0.149	0.193	0.19	0.139	0.12	0.134
RERF-LC-KJ	1.01	1.16	0.901	0.818	0.793	0.784	0.636	0.601	0.572	0.502	0.466	0.442	0.484	0.481	0.453	0.851	0.86	0.906	0.865	0.828
SK-LU-1	1.07	1.28	1.33	1.28	1.09	1.38	0.918	1.06	1.1	0.913	0.967	0.816	1.03	0.948	0.969	0.49	0.447	0.414	0.492	0.452
SW 1573	1.12	1.07	1.05	0.98	1.1	0.778	0.805	0.805	0.811	0.668	0.747	0.852	0.86	0.769	0.861	0.624	0.485	0.486	0.421	0.408
UMC-11	0.998	0.735	0.667	0.669	0.777	1	1.03	0.953	0.963	1.13	0.892	0.814	0.846	0.738	0.722	0.386	0.402	0.405	0.368	0.394
